As a reminder, the Ki is the equilibrium dissociation constant of an inhibitor or competing ligand from its target. A high value points to a looser hold on the target.

Structures are written as SMILES.

In assay [1] the target is Thymidine kinase 2, mitochondrial (rat). Briefly: Competitive inhibition against rat Mitochondrial thymidine kinase.
For assay [2] the target is unchanged. Briefly: Non-competitive inhibition against rat mitochondrial thymidine kinase.
For assay [3] the target is unchanged. Kind of assay: Noncompetitive inhibition against rat mitochondrial thymidine kinase.
For assay [4] the target is unchanged. Kind of assay: Competitive inhibition against rat Mitochondrial thymidine kinase. This is another data set of the same source.

In the case of `CCO[C@H]1C[C@H](n2cc(C)c(=O)[nH]c2=O)O[C@@H]1CO` [1-(4-Ethoxy-5-hydroxymethyl-tetrahydro-furan-2-yl)-5-methyl-1H-pyrimidine-2,4-dione], the inhibition constant Ki in assay [1] came out at 56 µM.
Take `C/C=C/c1cn([C@H]2C[C@H](O)[C@@H](CO)O2)c(=O)[nH]c1=O` [1-(4-Hydroxy-5-hydroxymethyl-tetrahydro-furan-2-yl)-5-propenyl-1H-pyrimidine-2,4-dione(BVDU)]: the affinity in assay [2] corresponds to a Ki of 510 µM.
Compound `Nc1nc(=O)n([C@H]2C[C@H](O)[C@@H](CO)O2)cc1I` [4-Amino-1-(4-hydroxy-5-hydroxymethyl-tetrahydro-furan-2-yl)-5-iodo-1H-pyrimidin-2-one] returned an inhibition constant Ki in assay [3] of 3500 µM.
The compound `Cc1cn([C@H]2C[C@H](O)[C@@H](CO)O2)c(=O)nc1N` [4-Amino-1-(4-hydroxy-5-hydroxymethyl-tetrahydro-furan-2-yl)-5-methyl-1H-pyrimidin-2-one] returned a Ki in assay [4] of 1300 µM.
The compound `Cc1cn(C2CC(O)C(CSCCCC(=O)O)O2)c(=O)[nH]c1=O` (stereo not given) [4-[3-Hydroxy-5-(5-methyl-2,4-dioxo-3,4-dihydro-2H-pyrimidin-1-yl)-tetrahydro-furan-2-ylmethylsulfanyl]-butyric acid] registered a Ki in assay [2] of 8500 µM.

(Values after BindingDB's records for doi:10.1021/jm00348a007 (1982).)
